Experimental data as given in publication PMC8296573, “Synthesis and Biological Evaluation of Fingolimod Derivatives as Antibacterial Agents” (ACS Omega, 2021).
≈ marks a conversion by molar mass, not a printed value. Where two headings read alike, the source gives them in different places.

How the values were obtained:
S. aureus ATCC 12598 = assay: Antibacterial activity, pre-exposure; type: cell-based, Staphylococcus aureus; details: for Average inhibition %, biofilms biomass / Average inhibition %, biofilms viability / Average inhibition %, planktonic cells turbidity / Average inhibition %, planktonic cells viability / inhibition at 5 µM / inhibition at 10 µM / inhibition at 15 µM / inhibition at 25 µM: S. aureus ATCC 12598, pre-exposure, ± SD
Experimental: (§1) The antimicrobial activity was assessed in a similar way for the initial screening and the dose–response evaluation against different bacterial strains. With the exception of the post-exposure experiment, the compounds were added to the wells along with the bacteria to test the ability of compounds to prevent bacterial growth and biofilm formation (pre-exposure). The compounds were diluted in DMSO and plated directly in 96-well plates before adding the bacterial culture, and plates were incubated for 18 h under aerobic conditions at 37 °C with shaking (220 rpm). The antibacterial activity of the compounds was assessed on planktonic cells and biofilms separately using two different measurements for each: optical density (turbidity) and resazurin reduction (viability) on planktonic cells and resazurin followed by a crystal violet staining assay (total biomass) on biofilms, as described in the following sections.
(§2) The resazurin staining was performed according to the protocol previously optimized with a few modifications.[46] Briefly, the planktonic solution was first transferred into a new 96-well plate and the OD of the planktonic solution was measured using a Varioskan LUX Multimode microplate reader (Thermo Scientific, Vantaa, Finland). Then, 10 μL of a 400 μM resazurin (R7017, Sigma-Aldrich, St. Louis, MO) diluted in phosphate-buffered saline (PBS) (Thermo Fisher Scientific, MA) was added to the wells (for a final resazurin concentration of 20 μM). The plate was incubated in the dark with shaking (220 rpm) for about 3–10 min at room temperature with S. aureus and A. baumannii (until the bacteria controls turned pink) or for 20 min at 37 °C with P. aeruginosa. Fluorescence was measured at λex = 560 nm and λem = 590 nm using the top optics of the Varioskan LUX Multimode microplate reader. The planktonic plate was then discarded. The original challenge plate containing the biofilms was washed once with PBS, and 200 μL of a 20 μM resazurin solution was added to the wells. The plate was incubated in the dark at 37 °C with shaking (220 rpm) for 30 min with S. aureus, 60 min with A. baumannii, and 90 min with P. aeruginosa. Fluorescence was measured as described for the planktonic solution. The biofilms were next treated with crystal violet staining.
(§3) After removing the resazurin solution from the plate, biofilms were fixed with ethanol 100% for 15 min at room temperature. Ethanol was then removed, and the biofilms were left to air-dry completely at RT. Crystal violet, diluted to 1:100 in deionized water from the 2.3% commercial solution (HT90132, Sigma-Aldrich, St. Louis, MO), was added to the wells and, after a 5 min incubation with the dye, the biofilms were washed twice with deionized water and left to air-dry for about 10 min. The dye was solubilized in ethanol 100% for 1 h, and absorbance was measured at 595 nm using a Multiskan Sky microplate spectrophotometer (Thermo Scientific, Vantaa, Finland).

S. aureus P2 = assay: Antibacterial activity, pre-exposure; type: cell-based, Staphylococcus aureus; details: for Average inhibition %, biofilms biomass / Average inhibition %, biofilms viability / Average inhibition %, planktonic cells turbidity / Average inhibition %, planktonic cells viability / inhibition at 5 µM / inhibition at 10 µM / inhibition at 15 µM / inhibition at 25 µM: S. aureus P2, pre-exposure, ± SD
Experimental: as §1, §2, §3

[1] = Colloidal aggregation by nephelometry; type: physicochemical; details: 25 µM
Experimental: 3. Aggregation data (Figure S3)
Potential colloidal aggregation in biological assays was studied at five concentrations (5 µM, 10 µM, 15 µM,
25 µM, 50 µM). The original assay conditions were simulated, and the light scattering of potential aggregates
in the mixture was studied by nephelometric methods using Nepheloskan Ascent (Labsystems, Finland).
Aggregation of the blank and compounds fingolimod, 43, 45, 55, 62, 79 and 82 were measured as triplicates
from one independent experiment at 400 V and at room temperature.
formation at 50 µM. […] However, at 15
µM, 10 µM and 5 µM, the obtained values were close to those observed by blank, therefore indicating only
minor or no detectable aggregation.
Figure S3: Aggregation data for fingolimod and compounds 43, 45, 55, 62, 79, 82. RNU = relative nephelometric unit.
The data are shown as the mean ± SD and normalized to the blank.
(1 picture or pasted object on this page, not shown here)

[2] = Cytotoxicity, resazurin staining assay; type: cell-based, human; details: human, 24 h incubation
Experimental: The cytotoxicity of the compounds was assessed on the three different human cell lines, A549, HEp-2, and HL-60, using the redox-based resazurin staining assay. The cells were seeded in clear 96-well plates at a density of 1 × 10^4 cells per well in a volume of 200 μL per well. The adherent cells were let to attach for 24 h before changing the media and adding the compounds (final concentration of 0.25% DMSO). HL-60 were counted and added to the plates at a density of 1 × 10^4 cells per well in a volume of 200 μL directly with the compounds. Untreated cells were used as negative controls, and cells treated with 1% TritonX-100 (Sigma-Aldrich, St. Louis, MO) were used as positive controls for cytotoxicity. The cells were incubated with the compounds for 24 h.
For the resazurin assay, the media was first removed, and the adherent cells were washed once with PBS. Then, 200 μL of 20 μM resazurin was added per well and cells were incubated for two more hours before the measurement of fluorescence, as mentioned earlier. For HL-60, 10 μL of 400 μM resazurin was added directly to the wells and the cells were incubated for an additional 4 h before the measurement of fluorescence.

| Molecule | Average inhibition %, biofilms viability (S. aureus ATCC 12598; 5 µM) [%] | Average inhibition %, planktonic cells viability (S. aureus ATCC 12598; 5 µM) [%] | Average inhibition %, biofilms viability (S. aureus ATCC 12598; 10 µM) [%] | Average inhibition %, planktonic cells viability (S. aureus ATCC 12598; 10 µM) [%] | Average inhibition %, biofilms viability (S. aureus ATCC 12598; 15 µM) [%] | Average inhibition %, planktonic cells viability (S. aureus ATCC 12598; 15 µM) [%] | Average inhibition %, biofilms viability (S. aureus ATCC 12598; 25 µM) [%] | Average inhibition %, planktonic cells viability (S. aureus ATCC 12598; 25 µM) [%] | Average inhibition %, biofilms viability (S. aureus P2; 5 µM) [%] | Average inhibition %, planktonic cells viability (S. aureus P2; 5 µM) [%] | Average inhibition %, biofilms viability (S. aureus P2; 10 µM) [%] | Average inhibition %, planktonic cells viability (S. aureus P2; 10 µM) [%] | Average inhibition %, biofilms viability (S. aureus P2; 15 µM) [%] | Average inhibition %, planktonic cells viability (S. aureus P2; 15 µM) [%] | Average inhibition %, biofilms viability (S. aureus P2; 25 µM) [%] | Average inhibition %, planktonic cells viability (S. aureus P2; 25 µM) [%] | Aggregation (nephelometry) [1] | CC50 at 24 h ([2]; A549 cells) [µM] | CC50 at 24 h ([2]; HEp-2 cells) [µM] | CC50 at 24 h ([2]; HL-60 cells) [µM] | also measured |
| --- | --- | --- | --- | --- | --- | --- | --- | --- | --- | --- | --- | --- | --- | --- | --- | --- | --- | --- | --- | --- | --- |
| 2-Amino-2-(4-decylbenzyl)propane-1,3-diol [Compound 45] | 83.6 ± 38.2 | 83.4 ± 39.6 | 99.6 ± 0.1 | 99.8 ± 0 | 99.6 ± 0.1 | 99.8 ± 0 | 99.6 ± 0.1 | 99.8 ± 0.1 | 69.6 ± 37.8 | 70 ± 36.1 | 99.6 ± 0 | 99.8 ± 0 | 99.6 ± 0 | 99.7 ± 0.1 | 99.6 ± 0 | 99.6 ± 0.1 | potential aggregation | – | – | – | Average inhibition %, biofilms biomass (S. aureus ATCC 12598; 5 µM): 75.4 ± 28.1%; Average inhibition %, planktonic cells turbidity (S. aureus ATCC 12598; 5 µM): 89.3 ± 24.1%; Average inhibition %, biofilms biomass (S. aureus ATCC 12598; 10 µM): 95.3 ± 0.4%; Average inhibition %, planktonic cells turbidity (S. aureus ATCC 12598; 10 µM): 99.4 ± 0%; Average inhibition %, biofilms biomass (S. aureus ATCC 12598; 15 µM): 94.4 ± 0.3%; Average inhibition %, planktonic cells turbidity (S. aureus ATCC 12598; 15 µM): 99.1 ± 0%; Average inhibition %, biofilms biomass (S. aureus ATCC 12598; 25 µM): 94.9 ± 1%; Average inhibition %, planktonic cells turbidity (S. aureus ATCC 12598; 25 µM): 98.3 ± 0.2%; MIC S. aureus ATCC 12598 (S. aureus ATCC 12598; pre-exposure, 18 h): 5 to 10 µM; Average inhibition %, biofilms biomass (S. aureus P2; 5 µM): 74.6 ± 24.7%; Average inhibition %, planktonic cells turbidity (S. aureus P2; 5 µM): 74.4 ± 34.2%; Average inhibition %, biofilms biomass (S. aureus P2; 10 µM): 97.6 ± 0.3%; Average inhibition %, planktonic cells turbidity (S. aureus P2; 10 µM): 99.4 ± 0.1%; Average inhibition %, biofilms biomass (S. aureus P2; 15 µM): 96.9 ± 1.4%; Average inhibition %, planktonic cells turbidity (S. aureus P2; 15 µM): 99.1 ± 0.1%; Average inhibition %, biofilms biomass (S. aureus P2; 25 µM): 97.6 ± 0.3%; Average inhibition %, planktonic cells turbidity (S. aureus P2; 25 µM): 98.6 ± 0.1%; MIC S. aureus P2 (S. aureus P2; pre-exposure, 18 h): 5 to 10 µM |
| CCCCCCCCc1cccc(CCC(N)(CO)CO)c1 [Compound 43, 2-Amino-2-(3-octylphenethyl)propane-1,3-diol] | – | – | – | – | – | – | – | – | – | – | – | – | – | – | – | – | potential aggregation | > 40 | > 40 | 23.4 ± 3.2 | – |
| CCCCCCCCCCc1ccc(C(O)CC(N)(CO)CO)cc1 (stereo not shown) [Compound 55, 3-Amino-3-(hydroxymethyl)-1-(4-decylphenyl)butane-1,4-diol] | 15.2 ± 6.4 | 7.6 ± 8.8 | 99.2 ± 0.1 | 99.8 ± 0 | 99.5 ± 0.3 | 99.7 ± 0 | 99.6 ± 0 | 99.6 ± 0.1 | 32.1 ± 8.5 | 3.4 ± 5.8 | 99.4 ± 0.2 | 99.8 ± 0 | 99.6 ± 0 | 99.6 ± 0.1 | 99.6 ± 0 | 99.5 ± 0.1 | – | 35.3 ± 5.1 | 33.9 ± 1.2 | 7.4 ± 6.9 | inhibition at 5 µM (S. aureus ATCC 12598; Staphylococcus aureus, ATCC12598, 5 µM, read-out: Average inhibition %, biofilms biomass): 27.6 ± 19.6%; inhibition at 5 µM (S. aureus ATCC 12598; Staphylococcus aureus, ATCC12598, 5 µM, read-out: Average inhibition %, planktonic cells turbidity): 21.2 ± 6.5%; inhibition at 10 µM (S. aureus ATCC 12598; Staphylococcus aureus, ATCC12598, 10 µM, read-out: Average inhibition %, biofilms biomass): 94.3 ± 1.2%; inhibition at 10 µM (S. aureus ATCC 12598; Staphylococcus aureus, ATCC12598, 10 µM, read-out: Average inhibition %, planktonic cells turbidity): 99.6 ± 0.1%; inhibition at 15 µM (S. aureus ATCC 12598; Staphylococcus aureus, ATCC12598, 15 µM, read-out: Average inhibition %, biofilms biomass): 93 ± 1.1%; inhibition at 15 µM (S. aureus ATCC 12598; Staphylococcus aureus, ATCC12598, 15 µM, read-out: Average inhibition %, planktonic cells turbidity): 99.4 ± 0.2%; inhibition at 25 µM (S. aureus ATCC 12598; Staphylococcus aureus, ATCC12598, 25 µM, read-out: Average inhibition %, biofilms biomass): 90.2 ± 2.1%; inhibition at 25 µM (S. aureus ATCC 12598; Staphylococcus aureus, ATCC12598, 25 µM, read-out: Average inhibition %, planktonic cells turbidity): 98.9 ± 0.3%; MIC (S. aureus ATCC 12598; Staphylococcus aureus, ATCC12598, pre-exposure, 18 h, read-out: MIC S. aureus ATCC 12598): 10 µM (≈ 3.52 µg/mL); MIC (S. aureus P2; Staphylococcus aureus, P2, pre-exposure, 18 h): 10 µM (≈ 3.52 µg/mL); inhibition at 5 µM (S. aureus P2; Staphylococcus aureus, 5 µM, read-out: Average inhibition %, biofilms biomass): 23.6 ± 10.9%; inhibition at 5 µM (S. aureus P2; Staphylococcus aureus, 5 µM, read-out: Average inhibition %, planktonic cells turbidity): 14 ± 3%; inhibition at 10 µM (S. aureus P2; Staphylococcus aureus, 10 µM, read-out: Average inhibition %, biofilms biomass): 96.5 ± 0.7%; inhibition at 10 µM (S. aureus P2; Staphylococcus aureus, 10 µM, read-out: Average inhibition %, planktonic cells turbidity): 99.6 ± 0.1%; inhibition at 15 µM (S. aureus P2; Staphylococcus aureus, 15 µM, read-out: Average inhibition %, biofilms biomass): 95.1 ± 0.2%; inhibition at 15 µM (S. aureus P2; Staphylococcus aureus, 15 µM, read-out: Average inhibition %, planktonic cells turbidity): 99.3 ± 0.1%; inhibition at 25 µM (S. aureus P2; Staphylococcus aureus, 25 µM, read-out: Average inhibition %, biofilms biomass): 91.6 ± 1.2%; inhibition at 25 µM (S. aureus P2; Staphylococcus aureus, 25 µM, read-out: Average inhibition %, planktonic cells turbidity): 98.8 ± 0.2% |
